In PubChem BioAssay AID179 (DTP/NCI, 2004):
Calls of active or inactive are those of the source.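 The calls were made as follows: active = compounds giving half or more protection of infected cells from virus-caused growth loss, again on retest; inactive = the rest.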

Tested on: CEM cells HIV-1 protection, formazan growth assay
Assay: NCI AIDS Antiviral Assay
Conditions: for IC50: measured here: growth of uninfected CEM cells
Summary of the method: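 Human CEM cells, uninfected and HIV-1-infected, received five drug concentrations, and growth was read by soluble formazan assay. Compounds giving at least 50% protection were retested; reproducible 100% protection defined confirmed active.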

Row | Structure (SMILES) | EC50 [µM] | IC50 [µM] | outcome
1 | Cn1c(=O)c2nc3sc4ccccc4c(=N)n3c2n(C)c1=O | > 41.7 | > 41.7 | –
2 | CC(=O)OC1CC2(C)C(OC(C)=O)CC1C2(C)C (centres undefined) | > 200 | > 200 | –
3 | CCN(CC)c1ccc2c(c1)Oc1ccc(N(CC)CC)cc1C21Oc2ccccc2-c2c1c1ccccc1n2CC (centres undefined) | – | – | inactive
4 | CC(C)(c1ccccc1)C(C)(C)c1nc(-c2ccccc2)cc(-c2ccccc2)n1 | > 3.72 | > 3.72 | –
5 | O=C1C2ON3c4ccccc4C(=O)C3(c3ccccc3)C2C(=O)N1c1ccccc1 (centres undefined) | > 18.2 | > 18.2 | –
6 | CN(C)CCN(C)CCN(C)C.Cc1ccc(S(=O)(=O)[O-])cc1.Cc1ccc(S(=O)(=O)[O-])cc1.[Pd+2] | > 200 | 10.7 | –
7 | COc1ccc(OC)c2c(OC)cc(C)cc12 | > 200 | 89.1 | –
8 | COc1cc(/C=C2\SC(=S)N(/C=C/c3nc4ccccc4[nH]c3=O)C2=O)cc(OC)c1OC | > 200 | 18.2 | –
9 | CCOC(=O)c1nnsc1NC(=O)NN | > 200 | > 200 | –
10 | Cc1c(N)c(=O)oc2cc3occc(=O)c3cc12 | > 20.4 | 13.5 | –
11 | O=c1c2ccccc2c(=O)n2n1C1C=CC2C1 | > 44.7 | > 44.7 | –
12 | O=C1CCC(=O)N1Sc1ccccc1 | – | – | inactive
13 | O=C1c2ccccc2C(=O)c2c1c(-c1ccccc1)cc(CCO)c2-c1ccccc1 | – | – | inactive
14 | Oc1cc(-c2ccc(Cl)cc2)cn2c1nc1ccccc12 | > 200 | 9.77 | –
15 | CC1(C)Oc2ccc3ccccc3c2[C@@H](OC(=O)C23CCC(C)(C(=O)O2)C3(C)C)[C@H]1OC(=O)C12CCC(C)(C(=O)O1)C2(C)C (some centres undefined) | > 200 | 3.55 | –
16 | CC(C)COC(=O)CS(=O)(=O)O | > 200 | > 200 | –
17 | c1c[nH]c(C23C4C5C6C4C2C6C53)n1 (centres undefined) | > 200 | > 200 | –
18 | COC[C@@H](N=CN1CCc2cc(OC)c(OC)cc2[C@@H]1C)C(C)(C)C | > 513 | 490 | –
19 | C#CCNC(=O)NCCCC(NC(C)=O)C(=O)NCc1ccccc1 (centres undefined) | – | – | inactive

Row | Structure (SMILES) | EC50 [µM] | IC50 [µM] | outcome
20 | COC(C(O)c1ccc2c(c1)OCO2)P(=O)(c1ccccc1)c1ccccc1 (centres undefined) | – | – | inactive
21 | CC(Cc1ccccc1)NN(CS(=O)(=O)O)CS(=O)(=O)O (centres undefined) | – | – | inactive
22 | CS(=O)(=O)c1ccc(-c2cc(-c3ccc(S(C)(=O)=O)cc3)[n+](-c3cc(-c4ccccc4)c([O-])c(-c4ccccc4)c3)c(-c3ccc(S(C)(=O)=O)cc3)c2)cc1 | > 692 | > 692 | –
23 | CC(C)C(Nc1c2ccccc2nc2ccccc12)C(=O)O (centres undefined) | – | – | inactive
24 | CCCCCCCCCCCCCCCCCC(=O)OCC(CN(C)CCN(C)C)OC(=O)CCCCCCCCCCCCCCCCC (centres undefined) | – | – | inactive
25 | O=C1OC(Sc2ccccc2)(Sc2ccccc2)c2cccc3cccc1c23 | – | – | inactive
26 | O=c1cc(N=Nc2ccc(Cl)cc2)[nH]c(=O)[nH]1 | > 2 | 0.851 | –
27 | COc1cccc2c1cc([N+](=O)[O-])c1c(C(=O)O)cc3c(c12)OCO3 | > 200 | 19.1 | –
28 | O=C(Nc1ccccc1)c1cc2cc(O)c(O)cc2cn1 | > 158 | 7.41 | –
29 | CC(=O)Nc1cc2cc(NC=C(C#N)C#N)ccc2oc1=O | > 37.2 | > 37.2 | –
30 | CCCCCCCCCCCCOC1C(COCCN2CCCCC2)OC2OC(C)(C)OC21 (centres undefined) | > 200 | 2.63 | –
31 | CCCCCCCNC1=C(O)c2ccccc2C(=O)C1=O | > 200 | 55 | –
32 | O=c1c2ccccc2c2nc3ccccc3nc2n1C1CCCCC1 | – | – | inactive
33 | Cc1ccc2scc3c4ccccc4nc-3c2c1 | > 200 | 0.479 | –
34 | CC(C)(C)OC(=O)CN1CCNCCN(CC(=O)OC(C)(C)C)CCNCC1 | > 200 | 13.8 | –
35 | CC(C)OC(=O)NCCn1cc(-c2ccccc2)nn1 | > 200 | > 200 | –
36 | O=C1COC(C(=O)c2ccccc2)C(=O)N1 (centres undefined) | > 117 | > 117 | –
37 | CC(C)(C)c1ccc(OC2CCO2)cc1 (centres undefined) | > 34.7 | > 34.7 | –
